Measurements as given in ChEMBL document CHEMBL5370549, “Optimization and evaluation of pyridinyl vinyl sulfones as Nrf2 activator for the antioxidant and anti-inflammatory effects” (Eur J Med Chem, 2023).
Calls of active or inactive are those of the source.

What was measured:
[1] = molecular target: T1, Nuclear factor erythroid 2-related factor 2 (Mus musculus) (UniProt Q60795); test: Activation of Nrf2 in mouse BV-2 cells assessed as increase in HO-1 protein expression measured after 9 hrs by immunoblot analysis; type: cell-based; conditions: filed as activator, dose 0.01-3 µM
T1 sequence (whole entry): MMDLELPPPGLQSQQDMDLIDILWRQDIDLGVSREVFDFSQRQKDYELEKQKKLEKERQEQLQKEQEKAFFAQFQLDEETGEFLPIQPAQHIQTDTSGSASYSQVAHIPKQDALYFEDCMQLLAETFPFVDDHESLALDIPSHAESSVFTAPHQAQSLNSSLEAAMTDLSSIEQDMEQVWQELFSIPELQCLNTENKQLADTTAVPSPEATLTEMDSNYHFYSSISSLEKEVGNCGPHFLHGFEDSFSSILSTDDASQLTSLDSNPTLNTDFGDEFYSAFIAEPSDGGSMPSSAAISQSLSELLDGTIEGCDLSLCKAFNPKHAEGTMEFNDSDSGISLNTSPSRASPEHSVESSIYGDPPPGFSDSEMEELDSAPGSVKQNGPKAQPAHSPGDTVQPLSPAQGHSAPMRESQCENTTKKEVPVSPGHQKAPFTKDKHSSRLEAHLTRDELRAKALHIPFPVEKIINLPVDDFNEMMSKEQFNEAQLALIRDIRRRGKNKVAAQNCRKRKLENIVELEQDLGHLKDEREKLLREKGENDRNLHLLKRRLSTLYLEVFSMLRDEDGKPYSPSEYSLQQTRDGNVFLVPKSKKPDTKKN

BV-2 [2] = test: Antiinflammatory activity against LPS-induced mouse BV-2 cells assessed as inhibition of iNOS protein expression pretreated for 6 hrs followed by LPS stimulation for 24 hrs by immunoblot analysis; type: functional, cell-based; conditions: dose 0.001-1 µM, time 30.0 hrs
BV-2 [3] = test: Antiinflammatory activity against LPS-induced mouse BV-2 cells assessed as inhibition of IL-1 beta mRNA expression at 0.1 to 3 uM pretreated for 6 hrs followed by LPS stimulation for 6 hrs by qRT-PCR analysis; type: functional, cell-based; conditions: dose 0.1-3 µM, time 12.0 hrs
Mus musculus = test: Antiinflammatory activity against LPS-induced neuroinflammation C57BL/6N mouse model assessed as inhibition of TNF-alpha production in plasma at 20 mg/kg/day, po administered for 3 days followed by LPS administration for 7 days by ELISA; type: functional, organism-based; conditions: time 10.0 day

Measured: Activity

COc1cccnc1S(=O)(=O)/C=C/c1ncccc1Cl
active: [1] Dose-Dependent Effect | BV-2 [2] Dose-Dependent Effect | BV-2 [3] | Mus musculus
